The results in this text go back to patent publication US12156885B2, “Methods and compositions for treating heart conditions” (priority 2020, dated 2024).

The conditions of data set [1]: patient; lithium carbonate 300 mg per day (Li2CO3 150 mg BID).
Data set [2] in a line: Treatment of PVCs in a patient with lithium carbonate in combination with metoprolol (cardiac event monitor / EKG). It counts as in vivo, human. Conditions: lithium carbonate 300 mg per day (150 mg BID) in combination with metoprolol 150 mg per day. The text has this:
Trial 1 was started on Aug. 23, 2019 and stopped on Jan. 1, 2020; Trial 2 was started on Jan. 12, 2020 and stopped on Apr. 21, 2020; and Trial 3 was started on May 8, 2020 and was ongoing at the time the instant application was filed.
The first trial was 109 days. The second trial was 43 days.

Regarding `O=C([O-])[O-].[Li+].[Li+]` [lithium carbonate], in data set [1], the lithium serum level result was “about 0.2”. Besides, in data set [2] (each trial, for the duration of treatment with lithium), the “PVCs reduced, each of three trials” value is recorded as “at least 90%”. The “PVCs reduced (reduction of PVCs)” value in data set [2] (within a few days, for the duration of lithium treatment) is reported as “about 90%”.
